Activity calls are given as the source filed them. The calls are words filed in the database; no cut-off is given here.
What was measured:
[1] = target: T1, Prostaglandin G/H synthase 1 (Ovis aries) (UniProt P05979); assay: Reversible binding to ram seminal vesicle COX1 at 300 uM at 600 MHz and 37 degC by saturation transfer difference 1[H]NMR spectroscopy
T1 sequence (whole entry): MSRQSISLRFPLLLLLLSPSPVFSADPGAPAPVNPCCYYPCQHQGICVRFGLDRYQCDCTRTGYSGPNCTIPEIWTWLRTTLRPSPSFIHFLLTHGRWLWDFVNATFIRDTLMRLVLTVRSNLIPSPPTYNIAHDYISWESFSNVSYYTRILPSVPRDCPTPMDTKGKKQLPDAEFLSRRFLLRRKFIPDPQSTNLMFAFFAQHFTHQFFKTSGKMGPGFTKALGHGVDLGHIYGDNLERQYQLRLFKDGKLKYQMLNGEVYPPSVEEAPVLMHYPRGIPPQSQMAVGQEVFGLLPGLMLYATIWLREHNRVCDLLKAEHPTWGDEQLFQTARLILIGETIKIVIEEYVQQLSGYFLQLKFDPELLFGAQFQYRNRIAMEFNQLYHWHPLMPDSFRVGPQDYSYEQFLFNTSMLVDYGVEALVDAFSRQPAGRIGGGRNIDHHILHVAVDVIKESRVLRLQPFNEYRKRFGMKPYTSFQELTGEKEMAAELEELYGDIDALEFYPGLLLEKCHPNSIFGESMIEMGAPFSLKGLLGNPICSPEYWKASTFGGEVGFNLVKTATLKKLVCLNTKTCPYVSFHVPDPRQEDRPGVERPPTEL

[2] = target: T2, Prostaglandin G/H synthase 2 (Homo sapiens, UniProt P35354); assay: Inhibition of human COX2 measured after pre-incubation of enzyme with compound
T2 sequence (P35354 whole entry): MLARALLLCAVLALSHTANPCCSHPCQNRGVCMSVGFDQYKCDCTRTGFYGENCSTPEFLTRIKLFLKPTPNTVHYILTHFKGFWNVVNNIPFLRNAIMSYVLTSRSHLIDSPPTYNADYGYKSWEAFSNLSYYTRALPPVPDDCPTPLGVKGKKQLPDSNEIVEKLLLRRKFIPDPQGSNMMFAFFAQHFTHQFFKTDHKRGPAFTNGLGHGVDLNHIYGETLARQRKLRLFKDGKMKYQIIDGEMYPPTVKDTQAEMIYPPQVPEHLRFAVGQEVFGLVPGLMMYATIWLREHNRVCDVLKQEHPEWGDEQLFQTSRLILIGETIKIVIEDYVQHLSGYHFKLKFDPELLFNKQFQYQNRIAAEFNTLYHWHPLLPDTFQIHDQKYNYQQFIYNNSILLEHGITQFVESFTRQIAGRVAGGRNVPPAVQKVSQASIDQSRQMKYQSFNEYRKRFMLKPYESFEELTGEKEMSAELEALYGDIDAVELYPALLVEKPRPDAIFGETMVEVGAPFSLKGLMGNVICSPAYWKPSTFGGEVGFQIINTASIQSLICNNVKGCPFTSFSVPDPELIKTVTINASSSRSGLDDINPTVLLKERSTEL

[3] = target: T2, Prostaglandin G/H synthase 2; assay: Instantaneous inhibition of human COX2 measured immediately after incubation of enzyme with compound

| Activity [1] | IC50 [2] [µM] | IC50 [3] [µM] | SMILES |
| --- | --- | --- | --- |
| Active |  |  | O=C(O)Cc1ccccc1Nc1c(Cl)cccc1Cl |
| Active |  |  | CC(C)Cc1ccc(C(C)C(=O)O)cc1 (stereo not given) |
| Active | 0.12 | 60.5 | O=C(c1ccccc1)c1ccc2n1CCC2C(=O)O (racemic) [KETOROLAC TROMETHAMINE] |

— ChEMBL document CHEMBL2034951 (J Med Chem, 2011)
